Tested on: T25 (DNA, single strand, C6-amino dT at 8 of strand 2) TGGCGACGGCAGCGAGGCTTTTTTTTTTTTTTTTTTTTTTTTT/GCCTCGCTGCCGTCGCCA
Assay: Cy3 fluorescence quenching
Conditions: 100 mM KCl; 10 mM Tris-HCl pH 7.5, room temperature, 50 nM DNA; negative control, nonspecific quenching taken as background

CCc1c(C)c2cc3nc(cc4nc(cc5c(CC)c(C)c(cc1[nH]2)n5C)C(C)=C4CCC(=O)O)C(CCC(=O)O)=C3C
binding: weak

— publication PMC4081081 (2014)
